In patent US10844077B2, “Thiazolyl-containing compounds for treating proliferative diseases” (Dana-Farber Cancer Institute, Inc., priority 2014, dated 2020):

Assays:
Format in all cases: binding
broad panel of kinases [1] = molecular target: broad panel of kinases (Homo sapiens, UniProt Q9P1W9); conditions: PIM2; 1 μM
broad panel of kinases [2] = molecular target: broad panel of kinases (Homo sapiens, UniProt P21860); conditions: ERBB3; 1 μM
broad panel of kinases [3] = molecular target: broad panel of kinases (Homo sapiens, UniProt P53671); conditions: LIMK2; 1 μM
broad panel of kinases [4] = molecular target: broad panel of kinases (Homo sapiens, UniProt P42336, E545A); conditions: PIK3CA(E545A); 1 μM
broad panel of kinases [5] = molecular target: broad panel of kinases (Homo sapiens, UniProt Q9UEW8); conditions: STK39; 1 μM
broad panel of kinases [6] = molecular target: broad panel of kinases (Homo sapiens, UniProt Q6XUX3); conditions: RIPK5; 1 μM
broad panel of kinases [7] = molecular target: broad panel of kinases (Homo sapiens, UniProt Q14012); conditions: CAMK1; 1 μM
broad panel of kinases [8] = molecular target: broad panel of kinases (Homo sapiens, UniProt P24941); conditions: CDK2; 1 μM
broad panel of kinases [9] = molecular target: broad panel of kinases (Homo sapiens, UniProt O00141); conditions: SGK; 1 μM
broad panel of kinases [10] = molecular target: broad panel of kinases (Homo sapiens, UniProt Q16539); conditions: p38-alpha; 1 μM
Chain of broad panel of kinases (Homo sapiens, UniProt Q16539) (Q16539 2-360 limits assumed): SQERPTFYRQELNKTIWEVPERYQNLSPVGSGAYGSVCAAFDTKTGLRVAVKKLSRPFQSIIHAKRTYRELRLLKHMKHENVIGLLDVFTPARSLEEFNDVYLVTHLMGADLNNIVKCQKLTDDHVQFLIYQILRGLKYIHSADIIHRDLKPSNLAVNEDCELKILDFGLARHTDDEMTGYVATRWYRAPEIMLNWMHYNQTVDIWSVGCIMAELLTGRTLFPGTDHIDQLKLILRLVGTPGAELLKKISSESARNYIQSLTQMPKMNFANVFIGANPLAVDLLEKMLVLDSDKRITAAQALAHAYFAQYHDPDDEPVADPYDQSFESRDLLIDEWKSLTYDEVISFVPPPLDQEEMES

broad panel of kinases [11] = molecular target: broad panel of kinases (Homo sapiens, UniProt P11309); conditions: P1M1 (PIM1); 1 μM
broad panel of kinases [12] = molecular target: broad panel of kinases (Homo sapiens, UniProt P10721, L576P); conditions: KIT(L576P); 1 μM
broad panel of kinases [13] = molecular target: broad panel of kinases (Homo sapiens, UniProt O15146); conditions: MUSK; 1 μM
Chain of broad panel of kinases (Homo sapiens, UniProt O15146) (O15146 24-869 limits assumed): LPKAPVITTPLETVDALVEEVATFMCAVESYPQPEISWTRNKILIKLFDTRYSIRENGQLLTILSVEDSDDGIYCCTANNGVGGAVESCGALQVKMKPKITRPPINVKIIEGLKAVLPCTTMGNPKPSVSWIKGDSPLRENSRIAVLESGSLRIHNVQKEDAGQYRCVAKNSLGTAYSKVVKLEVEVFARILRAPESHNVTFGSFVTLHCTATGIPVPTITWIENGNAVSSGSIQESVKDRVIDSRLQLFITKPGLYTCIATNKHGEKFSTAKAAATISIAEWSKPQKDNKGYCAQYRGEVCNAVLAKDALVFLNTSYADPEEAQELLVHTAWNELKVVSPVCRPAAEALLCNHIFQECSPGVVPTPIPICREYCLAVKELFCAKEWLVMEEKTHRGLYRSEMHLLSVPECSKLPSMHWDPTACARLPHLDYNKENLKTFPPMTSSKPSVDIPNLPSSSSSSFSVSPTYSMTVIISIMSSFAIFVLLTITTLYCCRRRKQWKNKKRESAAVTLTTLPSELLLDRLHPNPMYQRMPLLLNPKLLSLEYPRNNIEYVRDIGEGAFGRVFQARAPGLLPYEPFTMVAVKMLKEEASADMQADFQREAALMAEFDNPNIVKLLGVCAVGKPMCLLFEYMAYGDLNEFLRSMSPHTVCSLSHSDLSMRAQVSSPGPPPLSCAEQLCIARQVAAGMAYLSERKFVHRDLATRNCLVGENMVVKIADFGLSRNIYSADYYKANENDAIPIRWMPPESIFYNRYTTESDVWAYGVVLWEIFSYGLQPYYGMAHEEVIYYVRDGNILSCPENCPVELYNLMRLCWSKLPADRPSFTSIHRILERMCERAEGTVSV

broad panel of kinases [14] = molecular target: broad panel of kinases (Homo sapiens, UniProt Q8IYT8); conditions: ULK2; 1 μM
broad panel of kinases [15] = molecular target: broad panel of kinases (Homo sapiens, UniProt Q13555); conditions: CAMK2G; 1 μM
broad panel of kinases [16] = molecular target: broad panel of kinases (Homo sapiens, UniProt Q16512); conditions: PKN1; 1 μM
Chain of broad panel of kinases (Homo sapiens, UniProt Q16512) (Q16512 2-942 limits assumed): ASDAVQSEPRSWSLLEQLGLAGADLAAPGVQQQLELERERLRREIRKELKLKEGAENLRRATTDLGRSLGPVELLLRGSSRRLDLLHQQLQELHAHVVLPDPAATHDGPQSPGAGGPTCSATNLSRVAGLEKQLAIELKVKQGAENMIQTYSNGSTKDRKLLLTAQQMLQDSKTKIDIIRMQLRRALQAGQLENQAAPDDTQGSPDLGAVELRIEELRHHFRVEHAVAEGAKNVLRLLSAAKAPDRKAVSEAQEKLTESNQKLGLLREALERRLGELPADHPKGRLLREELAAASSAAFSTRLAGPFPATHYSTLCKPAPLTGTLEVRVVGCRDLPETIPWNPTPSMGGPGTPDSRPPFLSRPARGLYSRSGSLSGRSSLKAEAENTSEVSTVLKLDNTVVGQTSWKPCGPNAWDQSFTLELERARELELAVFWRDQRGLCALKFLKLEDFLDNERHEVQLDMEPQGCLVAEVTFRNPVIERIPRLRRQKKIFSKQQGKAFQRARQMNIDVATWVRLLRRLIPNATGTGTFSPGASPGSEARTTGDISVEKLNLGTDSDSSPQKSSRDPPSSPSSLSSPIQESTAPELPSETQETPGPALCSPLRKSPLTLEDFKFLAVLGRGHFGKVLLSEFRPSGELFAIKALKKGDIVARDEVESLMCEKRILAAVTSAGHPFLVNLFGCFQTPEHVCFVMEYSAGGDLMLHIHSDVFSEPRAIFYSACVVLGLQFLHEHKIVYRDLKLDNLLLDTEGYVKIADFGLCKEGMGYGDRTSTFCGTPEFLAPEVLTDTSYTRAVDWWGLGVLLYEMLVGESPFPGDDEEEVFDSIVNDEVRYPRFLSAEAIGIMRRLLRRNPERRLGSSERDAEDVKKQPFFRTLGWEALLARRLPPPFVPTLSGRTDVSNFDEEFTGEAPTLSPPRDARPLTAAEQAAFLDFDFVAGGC

broad panel of kinases [17] = molecular target: broad panel of kinases (Homo sapiens, UniProt P53355); conditions: DAPK1; 1 μM
broad panel of kinases [18] = molecular target: broad panel of kinases (Homo sapiens, UniProt P36888, D835H); conditions: FLT3(D835H); 1 μM
broad panel of kinases [19] = molecular target: broad panel of kinases (Homo sapiens, UniProt P36888, D835Y); conditions: FLT3(D835Y); 1 μM
broad panel of kinases [20] = molecular target: broad panel of kinases (Homo sapiens, UniProt Q99759); conditions: MAP3K3; 1 μM
broad panel of kinases [21] = molecular target: broad panel of kinases (Homo sapiens, UniProt Q16816); conditions: PHKG1; 1 μM
broad panel of kinases [22] = molecular target: broad panel of kinases (Homo sapiens, UniProt P04626); conditions: ERBB2; 1 μM
broad panel of kinases [23] = molecular target: broad panel of kinases (Homo sapiens, UniProt P45984); conditions: JNK2; 1 μM
broad panel of kinases [24] = molecular target: broad panel of kinases (Homo sapiens, UniProt Q9BWU1); conditions: CDK11; 1 μM
broad panel of kinases [25] = molecular target: broad panel of kinases (Homo sapiens, UniProt Q9H4B4); conditions: PLK3; 1 μM
broad panel of kinases [26] = molecular target: broad panel of kinases (Homo sapiens, UniProt Q04771); conditions: ACVR1; 1 μM
Chain of broad panel of kinases (Homo sapiens, UniProt Q04771) (Q04771 21-509 limits assumed): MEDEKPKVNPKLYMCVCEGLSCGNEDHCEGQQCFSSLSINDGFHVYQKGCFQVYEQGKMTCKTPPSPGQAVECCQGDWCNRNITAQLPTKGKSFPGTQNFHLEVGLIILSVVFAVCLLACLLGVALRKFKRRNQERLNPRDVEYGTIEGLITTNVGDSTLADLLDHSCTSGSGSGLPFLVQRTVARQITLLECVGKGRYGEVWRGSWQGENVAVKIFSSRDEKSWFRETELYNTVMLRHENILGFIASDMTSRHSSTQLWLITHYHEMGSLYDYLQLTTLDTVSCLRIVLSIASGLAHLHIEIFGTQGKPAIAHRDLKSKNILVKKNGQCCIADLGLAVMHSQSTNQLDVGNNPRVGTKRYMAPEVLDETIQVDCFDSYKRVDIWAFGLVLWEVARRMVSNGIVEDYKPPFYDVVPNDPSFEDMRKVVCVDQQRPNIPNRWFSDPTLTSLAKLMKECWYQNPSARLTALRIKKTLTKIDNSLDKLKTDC

broad panel of kinases [27] = molecular target: broad panel of kinases (Homo sapiens, UniProt P42336, H1047L); conditions: PIK3CA(H1047L); 1 μM
broad panel of kinases [28] = molecular target: broad panel of kinases (Homo sapiens, UniProt Q92630); conditions: DYRK2; 1 μM
broad panel of kinases [29] = molecular target: broad panel of kinases (Homo sapiens, UniProt Q06187); conditions: BTK; 1 μM
Chain of broad panel of kinases (Homo sapiens, UniProt Q06187) (Q06187 2-659 limits assumed): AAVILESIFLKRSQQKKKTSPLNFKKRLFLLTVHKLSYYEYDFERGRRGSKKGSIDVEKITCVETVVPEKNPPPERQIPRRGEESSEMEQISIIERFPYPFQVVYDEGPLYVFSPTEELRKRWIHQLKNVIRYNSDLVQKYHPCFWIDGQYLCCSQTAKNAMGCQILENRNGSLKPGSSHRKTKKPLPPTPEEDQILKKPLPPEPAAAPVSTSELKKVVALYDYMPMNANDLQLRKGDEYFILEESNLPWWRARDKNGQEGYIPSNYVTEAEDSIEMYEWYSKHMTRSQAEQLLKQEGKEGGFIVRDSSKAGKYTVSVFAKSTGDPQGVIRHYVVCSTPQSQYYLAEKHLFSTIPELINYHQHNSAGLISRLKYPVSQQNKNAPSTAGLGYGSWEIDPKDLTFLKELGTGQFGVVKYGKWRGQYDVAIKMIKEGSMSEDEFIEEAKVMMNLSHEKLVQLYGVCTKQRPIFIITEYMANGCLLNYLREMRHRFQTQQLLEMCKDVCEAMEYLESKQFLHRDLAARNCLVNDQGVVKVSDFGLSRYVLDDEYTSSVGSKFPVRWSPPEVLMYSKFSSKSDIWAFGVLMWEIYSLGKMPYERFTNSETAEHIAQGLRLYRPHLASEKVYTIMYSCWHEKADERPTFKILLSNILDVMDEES

broad panel of kinases [30] = molecular target: broad panel of kinases (Homo sapiens, UniProt Q32MK0); conditions: MLCK; 1 μM
broad panel of kinases [31] = molecular target: broad panel of kinases (Homo sapiens, UniProt Q9UF33); conditions: EPHA6; 1 μM
Chain of broad panel of kinases (Homo sapiens, UniProt Q9UF33) (Q9UF33 23-1036 limits assumed): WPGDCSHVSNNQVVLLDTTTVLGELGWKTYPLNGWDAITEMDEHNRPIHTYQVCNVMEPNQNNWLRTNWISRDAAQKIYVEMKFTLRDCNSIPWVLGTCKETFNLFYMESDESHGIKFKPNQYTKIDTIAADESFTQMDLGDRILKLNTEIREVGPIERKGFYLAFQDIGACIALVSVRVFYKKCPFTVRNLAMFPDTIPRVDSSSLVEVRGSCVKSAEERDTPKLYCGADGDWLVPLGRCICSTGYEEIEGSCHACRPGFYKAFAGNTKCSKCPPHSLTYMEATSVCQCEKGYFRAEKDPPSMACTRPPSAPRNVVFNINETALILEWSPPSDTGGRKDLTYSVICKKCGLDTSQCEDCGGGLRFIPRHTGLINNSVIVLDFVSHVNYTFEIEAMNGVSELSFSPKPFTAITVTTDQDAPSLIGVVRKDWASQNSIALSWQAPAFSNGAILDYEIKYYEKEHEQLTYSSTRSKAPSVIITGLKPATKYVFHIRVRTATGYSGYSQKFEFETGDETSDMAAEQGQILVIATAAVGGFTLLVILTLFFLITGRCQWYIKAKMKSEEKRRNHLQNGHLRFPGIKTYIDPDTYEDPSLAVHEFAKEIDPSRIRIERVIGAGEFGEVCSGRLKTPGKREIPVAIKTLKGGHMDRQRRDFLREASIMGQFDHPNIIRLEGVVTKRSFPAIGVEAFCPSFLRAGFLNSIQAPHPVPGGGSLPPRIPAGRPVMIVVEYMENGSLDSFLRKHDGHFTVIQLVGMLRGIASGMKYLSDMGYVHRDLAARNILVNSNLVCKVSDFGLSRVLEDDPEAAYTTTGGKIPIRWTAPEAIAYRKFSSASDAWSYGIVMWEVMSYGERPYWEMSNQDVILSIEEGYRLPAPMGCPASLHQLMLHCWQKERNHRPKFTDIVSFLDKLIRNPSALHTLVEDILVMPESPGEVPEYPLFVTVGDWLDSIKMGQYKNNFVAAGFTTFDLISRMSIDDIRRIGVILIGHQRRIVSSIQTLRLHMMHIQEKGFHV

broad panel of kinases [32] = molecular target: broad panel of kinases (Homo sapiens, UniProt Q9BYT3); conditions: STK33; 1 μM
broad panel of kinases [33] = molecular target: broad panel of kinases (Homo sapiens, UniProt O00506); conditions: YSK1; 1 μM
broad panel of kinases [34] = molecular target: broad panel of kinases (Homo sapiens, UniProt Q16659); conditions: ERK3; 1 μM
broad panel of kinases [35] = molecular target: broad panel of kinases (Homo sapiens, UniProt Q9BUB5); conditions: MKNK1; 1 μM
broad panel of kinases [36] = molecular target: broad panel of kinases (Homo sapiens, UniProt O14920); conditions: IKK-beta; 1 μM
broad panel of kinases [37] = molecular target: broad panel of kinases (Homo sapiens, UniProt P57059); conditions: SIK; 1 μM

| SMILES | percent of control binding remaining (lower = stronger binding) (broad panel of kinases [1]) | percent of control binding remaining (lower = stronger binding) (broad panel of kinases [2]) | percent of control binding remaining (lower = stronger binding) (broad panel of kinases [3]) | percent of control binding remaining (lower = stronger binding) (broad panel of kinases [4]) | percent of control binding remaining (lower = stronger binding) (broad panel of kinases [5]) | percent of control binding remaining (lower = stronger binding) (broad panel of kinases [6]) | percent of control binding remaining (lower = stronger binding) (broad panel of kinases [7]) | percent of control binding remaining (lower = stronger binding) (broad panel of kinases [8]) | percent of control binding remaining (lower = stronger binding) (broad panel of kinases [9]) | percent of control binding remaining (lower = stronger binding) (broad panel of kinases [10]) | percent of control binding remaining (lower = stronger binding) (broad panel of kinases [11]) | percent of control binding remaining (lower = stronger binding) (broad panel of kinases [12]) | percent of control binding remaining (lower = stronger binding) (broad panel of kinases [13]) | percent of control binding remaining (lower = stronger binding) (broad panel of kinases [14]) | percent of control binding remaining (lower = stronger binding) (broad panel of kinases [15]) | percent of control binding remaining (lower = stronger binding) (broad panel of kinases [16]) | percent of control binding remaining (lower = stronger binding) (broad panel of kinases [17]) | percent of control binding remaining (lower = stronger binding) (broad panel of kinases [18]) | percent of control binding remaining (lower = stronger binding) (broad panel of kinases [19]) | percent of control binding remaining (lower = stronger binding) (broad panel of kinases [20]) | other results |
| --- | --- | --- | --- | --- | --- | --- | --- | --- | --- | --- | --- | --- | --- | --- | --- | --- | --- | --- | --- | --- | --- |
| C=CC(=O)N1CC[C@H](Nc2nc(CN3CCOCC3)cc(Nc3ncc(C(=O)Nc4c(C)cccc4C)s3)n2)C1 [Example I-2] | 84% | 0.1% | 51% | 100% | 92% | 100% | 91% | 100% | 56% | 0.1% | 97% | 0% | 98% | 89% | 91% | 100% | 100% | 100% | 97% | 79% | percent of control binding remaining (lower = stronger binding) (broad panel of kinases [21]): 100%; percent of control binding remaining (lower = stronger binding) (broad panel of kinases [22]): 7.5%; percent of control binding remaining (lower = stronger binding) (broad panel of kinases [23]): 100%; percent of control binding remaining (lower = stronger binding) (broad panel of kinases [24]): 98%; percent of control binding remaining (lower = stronger binding) (broad panel of kinases [25]): 99%; percent of control binding remaining (lower = stronger binding) (broad panel of kinases [26]): 74%; percent of control binding remaining (lower = stronger binding) (broad panel of kinases [27]): 84%; percent of control binding remaining (lower = stronger binding) (broad panel of kinases [28]): 88%; percent of control binding remaining (lower = stronger binding) (broad panel of kinases [29]): 0%; percent of control binding remaining (lower = stronger binding) (broad panel of kinases [30]): 100%; percent of control binding remaining (lower = stronger binding) (broad panel of kinases [31]): 100%; percent of control binding remaining (lower = stronger binding) (broad panel of kinases [32]): 86%; percent of control binding remaining (lower = stronger binding) (broad panel of kinases [33]): 85%; percent of control binding remaining (lower = stronger binding) (broad panel of kinases [34]): 100%; percent of control binding remaining (lower = stronger binding) (broad panel of kinases [35]): 100%; percent of control binding remaining (lower = stronger binding) (broad panel of kinases [36]): 75%; percent of control binding remaining (lower = stronger binding) (broad panel of kinases [37]): 0.8% |
| C=CC(=O)N1CC[C@H](Nc2nccc(Nc3ncc(C(=O)Nc4c(C)cccc4C)s3)n2)C1 [Example I-3] | 72% | 0.8% | 65% | 100% | 71% | 86% | 63% | 100% | 61% | 0.2% | 95% | 0% | 100% | 91% | 97% | 81% | 100% | 100% | 100% | 94% | percent of control binding remaining (lower = stronger binding) (broad panel of kinases [21]): 99%; percent of control binding remaining (lower = stronger binding) (broad panel of kinases [22]): 0.8%; percent of control binding remaining (lower = stronger binding) (broad panel of kinases [23]): 90%; percent of control binding remaining (lower = stronger binding) (broad panel of kinases [24]): 83%; percent of control binding remaining (lower = stronger binding) (broad panel of kinases [25]): 97%; percent of control binding remaining (lower = stronger binding) (broad panel of kinases [26]): 100%; percent of control binding remaining (lower = stronger binding) (broad panel of kinases [27]): 100%; percent of control binding remaining (lower = stronger binding) (broad panel of kinases [28]): 74%; percent of control binding remaining (lower = stronger binding) (broad panel of kinases [29]): 0.05%; percent of control binding remaining (lower = stronger binding) (broad panel of kinases [30]): 100%; percent of control binding remaining (lower = stronger binding) (broad panel of kinases [31]): 100%; percent of control binding remaining (lower = stronger binding) (broad panel of kinases [32]): 96%; percent of control binding remaining (lower = stronger binding) (broad panel of kinases [33]): 87%; percent of control binding remaining (lower = stronger binding) (broad panel of kinases [34]): 89%; percent of control binding remaining (lower = stronger binding) (broad panel of kinases [35]): 100%; percent of control binding remaining (lower = stronger binding) (broad panel of kinases [36]): 86%; percent of control binding remaining (lower = stronger binding) (broad panel of kinases [37]): 0.4% |
